What was measured:
[1] = system: LOXIMVI cells; experiment: MTS assay Example 2, single agents and combinations; assay type: cell-based; settings: read-out: IC50 (Molar)
Experimental: (§1) The day before plating cells all cultures were fed with fresh, complete growth media. On the harvest (plating) day cells were counted by Trypan Blue exclusion staining method.
(§2) Cells were harvested and seeded in 96 well microtiter plates at 15,000 cells per well in 190 μl of media and incubated for 24 hours to allow the cells to attach before drug addition.
(§3) The cytotoxic effect was measured by the MTS Assay (Tetrazolium), which is a colorimetric method for determining the number of viable cells.
(§4) After 72 hours of incubation with tested agents 25 μl of MTS+PMS solution was added to each microtiter well and incubated for 4 hours at 37° C. Plates were then removed from incubator and placed on plate shaker for 5 minutes (covered with aluminum foil for protection from light). Optical densities were read at 490 nm on spectrophotometer plate reader. Data was analyzed as: • 1. Prism (Graphpad) software program was used to normalized the data to control values (100%=cell growth in the absence of agent (drug); 0%=blank control). • 2. Data normalized were plotted as scatter plots.
(§5) Conversely, antagonism was concluded when inhibition was lower than both maxima. […] Statistical significance was assessed by performing a student's t-test on the inhibition at each dose ratio versus the inhibition at the maximum for each drug.
(§6) As a visual aid, response values were plotted on a scatter plot with dose ratios given on the x-axis and % response values on the y-axis. […] In cases where response values at the two endpoints were approximately equivalent, points lying above or below this predicted line of additivity could be interpreted as representing antagonistic or synergistic drug interaction respectively.

[2] = system: UACC-257 cells; experiment: as above; assay type: cell-based; settings: UACC-257, MTS; read-out: IC50 (Molar)
Experimental: as §1, §2, §3, §4, §5, §6

[3] = system: MRI-H187 melanoma tumor xenografts; experiment: Net tumor volume in tumor xenografts; assay type: in vivo, female athymic mice; settings: Aplidine 50 μg/kg, DTIC 40 mg/kg, Carboplatin 25 mg/kg, i.p.
Excerpt: (§7) Athymic nude female mice were received from Harlan Sprague Dawley, Madison, Wis. at 4-5 weeks of age. Mice were acclimated to the laboratory for at least one week prior to implantation of tumor. Animals were housed in static cages with food and water allowed ad libitum. Experimental animals were implanted with either tumor fragments derived from transplantation established human tumors or with cells obtain directly from in vitro culture. Tumors were implanted subcutaneously on the right flank on Day 0.
(§8) Tumor size measurements were recorded twice weekly beginning on day 4 or 5 using vernier calipers. The formula to calculate volume for a prolate ellipsoid was used to estimate tumor volume from 2-dimensional tumor measurements: tumor volume (mm^3)=(length×width^2)÷2. Assuming unit density, volume was converted to weight (i.e., 1 mm^3=1 mg). […] Treatments were initiated and administered on an individual body weight basis. A dose range finding study was performed on each tumor model to determine the appropriate dose level of each compound used in the combination studies.

[4] = system: LOX-IMVI melanoma tumor xenografts; experiment: Net tumor volume in tumor xenografts; assay type: in vivo, female athymic mice; settings: DTIC 30 mg/kg, Carboplatin 25 mg/kg, i.p.
Excerpt: as §7, §8

[5] = system: PC3 cells; experiment: MTS cytotoxicity assay, 72 hours, single agents and combinations with Aplidine; assay type: cell-based; settings: PC3, 72 hours drug exposure, read-out: IC50 (Molar)
Experimental: (§9) Day before plating cells all cultures were fed with fresh, complete growth media. On the harvest (plating) day cells were counted by Trypan Blue exclusion staining method (basic cell culture). Cells were harvested and seeded in 96 well microtiter plates at 10,000 cells per well in 190 μL of media and incubated for 24 hours to allow the cells to attach before drug addition. Cells were treated with the drugs and the cytotoxic effect was measured by the MTS Assay (Tetrazolium), which is a colorimetric method for determining the number of viable cells. After the 72 hours of incubation with drug, 25 μL of MTS+PMS solution was added to each microtiter well and incubated for 4 hours at 37° C. Plates were then removed from incubator and placed on plate shaker for 5 minutes (covered with aluminium foil for protection from light). Optical densities were read at 490 nm on spectrophotometer plate reader.
(§10) The microtiter plates were incubated for 72 hrs, at 5% CO2 and 37° C. The cytotoxic effect was measured by MTS Assay. Optical densities read at 490 nm. Normalized data was plotted and interpreted as described. Data was analysed as: • 1. Prism (Graphpad) software program was used to normalized the data to control values (100%=cell growth in the absence of agent (drug); 0%=blank control). • 2. Data normalized were plotted as scatter plots.
as §5
as §6, with “interaction,” for “interaction”

[6] = system: MOLT3 cells; experiment: as above; assay type: cell-based; settings: MOLT3, 72 hours drug exposure, read-out: IC50 (Molar)
Experimental: as §9, §10, §5
as §6, with “interaction,” for “interaction”

[7] = system: HT29 cells; experiment: as above; assay type: cell-based; settings: HT29, 72 hours drug exposure, read-out: IC50 (Molar)
Experimental: as §9, §10, §5
as §6, with “interaction,” for “interaction”

[8] = system: MX1 cells; experiment: as above; assay type: cell-based; settings: MX1, 72 hours drug exposure, read-out: IC50 (Molar)
Experimental: as §9, §10, §5
as §6, with “interaction,” for “interaction”

[9] = system: HL60 cells; experiment: as above; assay type: cell-based; settings: HL60, 72 hours drug exposure, read-out: IC50 (Molar)
Experimental: as §9, §10, §5
as §6, with “interaction,” for “interaction”

[10] = system: A549 cells; experiment: as above; assay type: cell-based; settings: A549, 72 hours drug exposure, read-out: IC50 (Molar)
Experimental: as §9, §10, §5
as §6, with “interaction,” for “interaction”

[11] = system: SKBR3 cells; experiment: as above; assay type: cell-based; settings: SKBR3, 72 hours drug exposure, read-out: IC50 (Molar)
Experimental: as §9, §10, §5
as §6, with “interaction,” for “interaction”

SMILES: N.N.O=C([O-])C1(C(=O)[O-])CCC1.[Pt+2] [carboplatin]
- IC50 [1]: 120 µM
- IC50 [2]: 170 µM
- Net Tumor Volume ± S.E.M. ([3]; MRI-H187, DAY 24): 213 ± 32 mg
- Net Tumor Volume ± S.E.M. ([3]; MRI-H187, DAY 27): 301 ± 50 mg
- Net Tumor Volume ± S.E.M. ([3]; MRI-H187, DAY 34): 540 ± 99 mg
- Net Tumor Volume ± S.E.M. ([3]; MRI-H187, DAY 38): 793 ± 132 mg
- Net Tumor Volume ± S.E.M. ([3]; MRI-H187, DAY 41): 917 ± 138 mg
- Net Tumor Volume ± S.E.M. ([3]; MRI-H187, DAY 46): 1303 ± 237 mg
- Net Tumor Volume ± S.E.M. ([3]; MRI-H187, DAY 52): 1603 ± 288 mg
- Net Tumor Volume ± S.E.M. ([3]; MRI-H187, DAY 55): 1989 ± 373 mg
- Net Tumor Volume ± S.E.M. ([3]; MRI-H187, DAY 59): 2292 ± 487 mg
- Net Tumor Volume ± S.E.M. ([3]; MRI-H187, DAY 62): 2659 ± 492 mg
- Net Tumor Volume ± S.E.M. ([3]; MRI-H187, DAY 66): 2723 ± 519 mg
- Net Tumor Volume ± S.E.M. ([4]; DAY 6, Aplidine 50 μg/kg): 107 ± 3 mg
- Net Tumor Volume ± S.E.M. ([4]; DAY 8, Aplidine 50 μg/kg): 347 ± 43 mg
- Net Tumor Volume ± S.E.M. ([4]; DAY 12, Aplidine 50 μg/kg): 1167 ± 117 mg
- Net Tumor Volume ± S.E.M. ([4]; DAY 14, Aplidine 50 μg/kg): 2936 ± 543 mg
- Net Tumor Volume ± S.E.M. ([4]; DAY 19, Aplidine 50 μg/kg): 4598 ± 1182 mg
- IC50 [5]: > 100 µM
- IC50 [6]: 4 µM
- IC50 [7]: 260 µM
- IC50 [8]: > 100 µM
- IC50 [9]: 56 µM
- IC50 [10]: 310 µM
- IC50 [11]: 52 µM
